Test results as given in article PMC10180065, “Mechanistic Studies of Arene–Ruthenium(II) Complexes with Carbothioamidopyrazoles as Alternative Cancer Drugs” (Molecules, 2023).

Columns and labels:
SW620 = assay: MTT cytotoxicity, SW620; type: cell-based, human; settings: 48 h incubation, read-out: Cytotoxic effect, IC50
Description: (§1) Cytotoxicity was evaluated against fifteen adherent human cancer cell lines using the MTT test: colorectal adenocarcinoma cells Caco2 (ATCC® HTB-37™), colorectal adenocarcinoma cells HT29 (ATCC® HTB-38™), colon colorectal carcinoma HCT116 (ATCC® CCL-247™), colon adenocarcinoma COLO205 (ATCC® CCL-222™), colorectal adenocarcinoma SW620 (ATCC® CCL-227™), colorectal adenocarcinoma grade IV LoVo (ATCC® CCL-229™), hepatocellular carcinoma Hep 3b (ATCC® HB-8064™), endometrium adenocarcinoma HEC1A (ATCC® HTB-112™), Ishikawa (99040201; Sigma–Aldrich Sigma, St. Louis, MO, USA), cervical adenocarcinoma cells HeLa (ATCC® CCL-2™), lung epithelial carcinoma A549 (ATCC® CRM-CCL-185™), breast epithelial adenocarcinoma cell positive for estrogen and progesterone receptors MCF7 (ATCC® HTB-22™) and negative for expression of estrogen receptor HCC38 (ATCC® CRL-2314™), acute promyelocytic leukemia HL-60 (ATCC® CCL-240™), skin melanoma WM115 (ATCC® CRL-1676™), and 1 suspension cancer cell line: acute lymphoblastic leukemia NALM6 (purchased from the German Collection of Microorganisms and Cell Cultures). HT29, NALM6, HCC-38 and HL-60 cells were cultured in RPMI 1640 medium (Thermo Fisher Scientific, Waltham, MA, USA) supplemented with 10% fetal bovine serum and antibiotic (gentamicin 25 μg ml^−1) (Gibco, Grand Island, New York, NY, USA). For the remaining tumor cell lines, Dulbecco’s minimal essential medium (DMEM, Lonza, Visp, Switzerland) supplemented with 10% fetal bovine serum and antibiotic instead of RPMI 1640 was used. In addition, Human Microvascular Endothelial Cells (HMEC1), which were obtained from the American Type Culture Collection (Manassas, VA, USA), were used as a model of normal cells. HMEC-1 were cultured in MCDB131 medium (Corning Life Sciences, Corning, NY, USA), supplemented with 10% fetal bovine serum, 10 ng/mL Epidermal Growth Factor (Millipore, Burlington, MA, USA) and 10 mM glutamine (Corning Life Sciences). All cells were grown at 37 °C in humidified atmosphere of 5% CO2 in air. The exponential growth of cells was maintained by regular passaging at 90% confluence three times a week using 0.025% trypsin/EDTA (Gibco, Grand Island, New York, NY, USA).
(§2) The cytotoxicity was tested by a standard MTT [3-(4,5-dimethylthiazol-2-yl)-2,5-diphenyltetrazolium bromide] (Sigma, St. Louis, MO, USA) microplate cell viability assay. The anticancer activity of the investigated compounds was evaluated in vitro on the basis of their ability to inhibit the proliferation of various cancer cells. Exponentially growing cells were seeded a day before the experiment into a 96-well microplate (Nunc, Roskilde, Denmark) at a density up to 6–8 × 10^3 cells/mL (depending on the cell line) and exposed to the test compounds at a wide range of concentrations for 48 h. Subsequently, various concentrations of the studied compounds (10^−7–10^−5 M) freshly prepared in DMSO (final concentration of <0.1% DMSO) and diluted with complete culture medium were added. After 48 h incubation, the cells were immediately subjected to a cell viability assay. At this time point, the number of viable cells in each well was estimated by the MTT test. Briefly, 50 µL (5 mg/mL final concentration) of MTT was added to each microplate well. This procedure was then followed by a three- to four-hour incubation at 37 °C. After incubation, MTT solution was replaced with 100 µL DMSO/well, which solubilized the formazan crystals formed by the dehydrogenases of metabolically active cells. Purple formazan absorbance was measured spectrophotometrically at 570 nm.

A549 = assay: MTT cytotoxicity, A549; type: cell-based, human; settings: 48 h incubation, read-out: Cytotoxic effect, IC50
Description: as §1, §2

[1] = test system: human microvascular endothelial cell line HMEC1; assay: MTT cytotoxicity, normal endothelial cells HMEC1; type: cell-based; settings: for IC50: HMEC1 normal endothelial cells, 48 h incubation, read-out: Cytotoxic effect, IC50; for IC50 for HMEC-1 higher than for cancer cells (selectivity): HMEC-1 vs cancer cells
Description: as §1, §2

Colo205 [2] = assay: MTT cytotoxicity, Colo205; type: cell-based, human; settings: 48 h incubation, read-out: Cytotoxic effect, IC50
Description: as §1, §2

HEC1A [3] = assay: Mitochondrial potential, JC-1 probe, HEC1A; type: cell-based, human; settings: IC50 concentration
Description: Cells (10 × 10^3/well) were seeded in black 96-well plates and grown for 24 h to reach the log phase. […] After removing the medium, the cell monolayer was washed twice with PBS solution and 50 μL of the JC-1 probe at a final concentration of 5 μM was added to the wells of the plate. The cells were incubated with the dye for 30 min in a CO2 incubator. Subsequently, the changes in the fluorescence of monomers (λex = 485 nm and λem = 525 nm) and aggregates (λex = 530 nm and λem = 590 nm) using JC-1 were monitored. The results of the tested trials were presented as the ratio of fluorescence of aggregates and JC1 monomers as a percentage of control values, which was assumed to be 100%.

human cancer cell lines = assay: MTT cytotoxicity, summary statements over the cancer cell line panel; type: cell-based; settings: read-out: IC50 for seven (2c) and six (3c) cancer cell lines
Description: Cytotoxicity was evaluated against fifteen adherent human cancer cell lines using the MTT test: colorectal adenocarcinoma cells Caco2 (ATCC® HTB-37™), colorectal adenocarcinoma cells HT29 (ATCC® HTB-38™), colon colorectal carcinoma HCT116 (ATCC® CCL-247™), colon adenocarcinoma COLO205 (ATCC® CCL-222™), colorectal adenocarcinoma SW620 (ATCC® CCL-227™), colorectal adenocarcinoma grade IV LoVo (ATCC® CCL-229™), hepatocellular carcinoma Hep 3b (ATCC® HB-8064™), endometrium adenocarcinoma HEC1A (ATCC® HTB-112™), Ishikawa (99040201; Sigma–Aldrich Sigma, St. Louis, MO, USA), cervical adenocarcinoma cells HeLa (ATCC® CCL-2™), lung epithelial carcinoma A549 (ATCC® CRM-CCL-185™), breast epithelial adenocarcinoma cell positive for estrogen and progesterone receptors MCF7 (ATCC® HTB-22™) and negative for expression of estrogen receptor HCC38 (ATCC® CRL-2314™), acute promyelocytic leukemia HL-60 (ATCC® CCL-240™), skin melanoma WM115 (ATCC® CRL-1676™), and 1 suspension cancer cell line: acute lymphoblastic leukemia NALM6 (purchased from the German Collection of Microorganisms and Cell Cultures). […]
The cytotoxicity was tested by a standard MTT [3-(4,5-dimethylthiazol-2-yl)-2,5-diphenyltetrazolium bromide] […] The anticancer activity of the investigated compounds was evaluated in vitro on the basis of their ability to inhibit the proliferation of various cancer cells. […]

Hep 3b = assay: MTT cytotoxicity, Hep 3b; type: cell-based, human; settings: 48 h incubation, read-out: Cytotoxic effect, IC50
Description: as §1, §2

MCF7 = assay: MTT cytotoxicity, MCF7; type: cell-based, human; settings: 48 h incubation, read-out: Cytotoxic effect, IC50
Description: as §1, §2

HCC38 = assay: MTT cytotoxicity, HCC38; type: cell-based, human; settings: 48 h incubation, read-out: Cytotoxic effect, IC50
Description: as §1, §2

HL60 = assay: MTT cytotoxicity, HL60; type: cell-based, human; settings: 48 h incubation, read-out: Cytotoxic effect, IC50
Description: as §1, §2

HEC1A [4] = assay: MTT cytotoxicity, HEC1A; type: cell-based, human; settings: 48 h incubation, read-out: Cytotoxic effect, IC50
Description: as §1, §2

Lipophilicity by RP-TLC = type: physicochemical; parameters: key: RM = log(1/Rf − 1), Rf = a/b; settings: eluent AcCN: H2O at 30–70% v/v, 22 °C
Description: All the experimental solutions of standard substances (0.1 mg/mL) were prepared by dissolving ligands (1a–1d) or ruthenium complexes (2a/3a–2d/3d) in ethanol. Commercially-available octadecyl-modified silica aluminum sheets (20 × 20 cm) were cut into 5 × 10 cm plates. The plates were manually spotted with 1.0 μL of freshly prepared solutions using automatic pipets, 5 mm from each edge. The chromatograms for all compounds (1a/2a/3a–1d/2d/3d) were developed using a horizontal developing chamber and the solvent migration distance was about 4.5 cm. The plates were visually inspected under UV light at 254 nm. Each zone was clearly marked and its distance was manually measured. The RP-TLC analyses of lipophilicity were performed at ambient temperature (22 °C). In this experiment, all measurements were performed in triplicate and the obtained results were used in further calculations. The acetonitrile and water mixtures for ligands 1a–1d and arene–ruthenium(II) complexes 2a/3a–2d/3d were used as mobile phases, with […] content increasing in the range of 30–70% v/v, at 5% intervals. Values of the chromatographic retention coefficient Rf (as shown Formula (1)) and RM (as shown Formula (2)), based on received chromatograms, were calculated and converted as follows:(1) Rf=a/b (2) RM=log1/Rf−1

Hela = assay: MTT cytotoxicity, Hela; type: cell-based, human; settings: 48 h incubation, read-out: Cytotoxic effect, IC50
Description: as §1, §2

LoVo = assay: MTT cytotoxicity, LoVo; type: cell-based, human; settings: 48 h incubation, read-out: Cytotoxic effect, IC50
Description: as §1, §2

WM115 = assay: MTT cytotoxicity, WM115; type: cell-based, human; settings: 48 h incubation, read-out: Cytotoxic effect, IC50
Description: as §1, §2

Ishikawa = assay: MTT cytotoxicity, Ishikawa; type: cell-based, human; settings: 48 h incubation, read-out: Cytotoxic effect, IC50
Description: as §1, §2

HT29 = assay: MTT cytotoxicity, HT29; type: cell-based, human; settings: 48 h incubation, read-out: Cytotoxic effect, IC50
Description: as §1, §2

Caco2 = assay: MTT cytotoxicity, Caco2; type: cell-based, human; settings: 48 h incubation, read-out: Cytotoxic effect, IC50
Description: as §1, §2

NALM6 = assay: MTT cytotoxicity, NALM6; type: cell-based, human; settings: 48 h incubation, read-out: Cytotoxic effect, IC50
Description: as §1, §2

Colo205 [5] = assay: RNS generation, DAF-FM probe, COLO205; type: cell-based, human; settings: COLO205, 24 h at IC50 concentration
PARP1 = assay: Cleaved PARP level (ELISA), COLO205 cells; type: cell-based, human; settings: COLO205, 24 h at IC50 concentration
Description: Cells (1 × 10^6) were seeded in 35 mm dishes and cultured for 24 h in the appropriate medium until they reached log phase growth. […] After incubation, the medium was removed, the cells were washed with PBS solution and trypsinized. The harvested cell pellet was lysed in RIPA buffer (50 mM Tris-HCL, pH 8.0, with 150 mM sodium chloride, 1.0% Igepal CA-630 (NP-40), 0.5% sodium deoxychlorate, and 0.1% sodium dodecyl sulfate) with protease inhibitor (phenylmethylsulfonyl fluoride) (Sigma-Aldrich Sigma, St. Louis, MO, USA). The level of cleaved PARP was estimated using the PARP Cleaved [214/215] ELISA kit (Invitrogen, Waltham, MA, USA) according to the protocol described in the manufacturer’s instructions.

| Lipophilicity, RM (Lipophilicity by RP-TLC) | Compound | IC50 (SW620) | IC50 (A549) | IC50 [1] | IC50 for HMEC-1 higher than for cancer cells (selectivity) [1] | IC50 (Colo205 [2]) | IC50 (human cancer cell lines) | IC50 (Hep 3b) | IC50 (MCF7) | IC50 (HCC38) | IC50 (HL60) | IC50 (HEC1A [4]) | IC50 (Hela) | IC50 (LoVo) | IC50 (WM115) | IC50 (Ishikawa) | IC50 (HT29) | IC50 (Caco2) | IC50 (NALM6) | also measured |
| --- | --- | --- | --- | --- | --- | --- | --- | --- | --- | --- | --- | --- | --- | --- | --- | --- | --- | --- | --- | --- |
| 2.27 | Cc1ccc(C(C)C)cc1.NC(=S)n1nc(-c2ccccc2)cc1O.[Cl-].[Cl][Ru+] [2c] | 49.4 ± 1.2 µM | > 200 µM | 192 ± 6.5 µM | 3–5 times | 32.6 ± 3.3 µM | < 50 µM | 104 ± 4.4 µM | 83.4 ± 7.3 µM | > 200 µM | 86.5 ± 8 µM | 24.5 ± 0.9 µM | 124 ± 7.2 µM | 42.6 ± 3.2 µM | 26.7 ± 3.3 µM | 142 ± 7.4 µM | 29.5 ± 2.1 µM | > 200 µM | 11.7 ± 1.6 µM | decrease in mitochondrial potential (JC-1) (HEC1A [3]): ~50% |
| 2.61 | Cc1ccc(C(C)C)cc1.F[P-](F)(F)(F)(F)F.NC(=S)n1nc(-c2ccccc2)cc1O.[Cl-].[Ru+2] [3c] | 90.1 ± 1.7 µM | 191 ± 4.3 µM | 164 ± 3.1 µM | 3–5 times | 26.7 ± 2.1 µM | < 50 µM | 52.1 ± 3.4 µM | 30.4 ± 2.1 µM | 131 ± 2.2 µM | 70.4 ± 6 µM | 39.9 ± 4.1 µM | 78.8 ± 1.1 µM | 32.4 ± 1.8 µM | 18.7 ± 1.7 µM | 124.3 ± 0.9 µM | 128 ± 4.2 µM | 172 ± 8.2 µM | 19.8 ± 1.8 µM | increase in nitrogen peroxide (RNS, DAF-FM probe) vs. control (Colo205 [5]): ~25%; increase in level of PARP1 degradation vs. control (PARP1): approximately 85% |
